# Measured values taken from US8344008B2 (Janssen Pharmaceutica NV, priority 2007, dated 2013).
# Target: T1, recombinant human LTA4 hydrolase (rhLTA4H) (Homo sapiens, UniProt P09960)
# T1 construct: made in house; host or cells: Spodoptera frugiperda (Sf-9) cells, baculovirus (pFastBac1)
# T1 sequence (P09960 1-611): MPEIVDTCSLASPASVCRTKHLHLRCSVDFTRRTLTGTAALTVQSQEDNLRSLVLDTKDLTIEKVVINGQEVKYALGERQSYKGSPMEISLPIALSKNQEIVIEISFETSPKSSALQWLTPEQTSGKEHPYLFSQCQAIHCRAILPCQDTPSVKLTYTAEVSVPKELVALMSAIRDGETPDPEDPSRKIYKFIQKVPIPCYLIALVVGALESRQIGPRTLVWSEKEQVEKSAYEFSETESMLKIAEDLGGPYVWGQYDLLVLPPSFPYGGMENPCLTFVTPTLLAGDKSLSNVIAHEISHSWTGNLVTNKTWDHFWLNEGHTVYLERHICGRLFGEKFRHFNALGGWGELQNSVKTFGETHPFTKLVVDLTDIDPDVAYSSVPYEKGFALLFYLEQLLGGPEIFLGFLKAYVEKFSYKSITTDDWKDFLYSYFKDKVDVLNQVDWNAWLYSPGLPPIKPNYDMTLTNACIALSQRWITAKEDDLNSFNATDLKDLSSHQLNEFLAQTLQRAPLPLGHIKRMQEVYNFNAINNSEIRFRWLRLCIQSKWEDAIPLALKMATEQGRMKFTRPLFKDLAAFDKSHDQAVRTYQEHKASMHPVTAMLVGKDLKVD
# Assay: Recombinant Human LTA4 Hydrolase Assay for LTA4 Hydrolase Inhibitor Activity
# Assay type: biochemical
# Conditions: average of results obtained; LTB4 quantified by enzyme-linked immunoassay
# In short: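 LTB4 formation, quantified by EIA after 10 min at rt, was the read-out once 9 ng LTA4 (free acid) was added to recombinant human enzyme (36 ng, Sf-9 expressed) that had sat 10 min with compound. Buffer: 0.1 M potassium phosphate pH 7.4 with fatty-acid-free BSA; IC50 by 4-parameter fit.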
row,Ki,SMILES
1,97 nM,"Cn1ccc(S(=O)(=O)N2CC3CN(Cc4ccc(Oc5nc6ccccc6s5)cc4)CC3C2)c1 (stereo not shown) [Example 123, 2-{4-[5-(1-Methyl-1H-pyrrole-3-sulfonyl)-hexahydro-pyrrolo[3,4-c]pyrrol-2-ylmethyl]-phenoxy}-benzothiazole]"
2,2290 nM,"O=S(=O)(c1cccs1)N1CC2CN(Cc3ccc(Oc4nc5ccccc5s4)cc3)CC2C1 (stereo not shown) [Example 124, 2-{4-[5-(Thiophene-2-sulfonyl)-hexahydro-pyrrolo[3,4-c]pyrrol-2-ylmethyl]-phenoxy}-benzothiazole]"
3,3620 nM,"O=S(=O)(c1ccsc1)N1CC2CN(Cc3ccc(Oc4nc5ccccc5s4)cc3)CC2C1 (stereo not shown) [Example 125, 2-{4-[5-(Thiophene-3-sulfonyl)-hexahydro-pyrrolo[3,4-c]pyrrol-2-ylmethyl]-phenoxy}-benzothiazole]"
4,17 nM,"O=S(=O)(C1CC1)N1CC2CN(Cc3ccc(Oc4nc5ccccc5s4)cc3)CC2C1 (stereo not shown) [Example 126, 2-[4-(5-Cyclopropanesulfonyl-hexahydro-pyrrolo[3,4-c]pyrrol-2-ylmethyl)-phenoxy]-benzothiazole]"
5,273 nM,"CS(=O)(=O)N1CCC2CN(Cc3ccc(Oc4nc5ccccc5s4)cc3)CC21 (stereo not shown) [Example 127, 2-[4-(1-Methanesulfonyl-hexahydro-pyrrolo[3,4-b]pyrrol-5-ylmethyl)-phenoxy]-benzothiazole]"
6,120 nM,"CS(=O)(=O)N1CC2CCN(Cc3ccc(Oc4nc5ccccc5s4)cc3)C2C1 (stereo not shown) [Example 128, 2-[4-(5-Methanesulfonyl-hexahydro-pyrrolo[3,4-b]pyrrol-1-ylmethyl)-phenoxy]-benzothiazole]"
7,35 nM,"CS(=O)(=O)N1CC2CN(Cc3ccc(Oc4nc5ccccc5s4)cc3)CC2C1 (stereo not shown) [Example 129, 2-[4-(5-Methanesulfonyl-hexahydro-pyrrolo[3,4-c]pyrrol-2-ylmethyl)-phenoxy]-benzothiazole]"
8,21 nM,"CS(=O)(=O)N1CCC2CN(Cc3ccc(Oc4nc5ccccc5s4)cc3)CC2C1 (stereo not shown) [Example 130, 2-[4-(5-Methanesulfonyl-octahydro-pyrrolo[3,4-c]pyridin-2-ylmethyl)-phenoxy]-benzothiazole]"
9,13 nM,"O=C(NCc1ccco1)N1CC2CN(Cc3ccc(Oc4nc5ccccc5s4)cc3)CC2C1 (stereo not shown) [Example 131, 5-[4-(Benzothiazol-2-yloxy)-benzyl]-hexahydro-pyrrolo[3,4-c]pyrrole-2-carboxylic acid (furan-2-ylmethyl)-amide]"
10,18 nM,"O=C(Nc1ccncc1)N1CC2CN(Cc3ccc(Oc4nc5ccccc5s4)cc3)CC2C1 (stereo not shown) [Example 132, 5-[4-(Benzothiazol-2-yloxy)-benzyl]-hexahydro-pyrrolo[3,4-c]pyrrole-2-carboxylic acid pyridin-4-yl amide]"
11,20 nM,"Cc1noc(C)c1NC(=O)N1CC2CN(Cc3ccc(Oc4nc5ccccc5s4)cc3)CC2C1 (stereo not shown) [Example 133, 5-[4-(Benzothiazol-2-yloxy)-benzyl]-hexahydro-pyrrolo[3,4-c]pyrrole-2-carboxylic acid (3,5-dimethyl-isoxazol-4-yl)-amide]"
12,32 nM,"NC(=O)N1CC2CN(CCOc3ccc(Oc4nc5ccccc5s4)cc3)CC2C1 (stereo not shown) [Example 134, 5-{2-[4-(Benzothiazol-2-yloxy)-phenoxy]-ethyl}-hexahydro-pyrrolo[3,4-c]pyrrole-2-carboxylic acid amide]"
13,57 nM,"NC(=O)N1CCC2CN(Cc3ccc(Oc4nc5ccccc5s4)cc3)CC21 (stereo not shown) [Example 135, 5-[4-(Benzothiazol-2-yloxy)-benzyl]-hexahydro-pyrrolo[3,4-b]pyrrole-1-carboxylic acid amide]"
14,24 nM,"NC(=O)N1CC2CCN(Cc3ccc(Oc4nc5ccccc5s4)cc3)C2C1 (stereo not shown) [Example 136, 1-[4-(Benzothiazol-2-yloxy)-benzyl]-hexahydro-pyrrolo[3,4-b]pyrrole-5-carboxylic acid amide]"
15,18 nM,"NC(=O)N1C[C@@H]2CCN(Cc3ccc(Oc4nc5ccccc5s4)cc3)[C@@H]2C1 [Example 137, (S,S)-1-[4-(Benzothiazol-2-yloxy)-benzyl]-hexahydro-pyrrolo[3,4-b]pyrrole-5-carboxylic acid amide]"
16,29 nM,"NC(=O)N1C[C@H]2CCN(Cc3ccc(Oc4nc5ccccc5s4)cc3)[C@H]2C1 [Example 138, (R,R)-1-[4-(Benzothiazol-2-yloxy)-benzyl]-hexahydro-pyrrolo[3,4-b]pyrrole-5-carboxylic acid amide]"
17,3 nM,"NC(=O)N1CC2CN(Cc3ccc(Oc4nc5ccccc5s4)cc3)CC2C1 (stereo not shown) [Example 139, 5-[4-(Benzothiazol-2-yloxy)-benzyl]-hexahydro-pyrrolo[3,4-c]pyrrole-2-carboxylic acid amide]"

row,Ki,SMILES
1,19 nM,"NC(=O)NC1[C@H]2CN(Cc3ccc(Oc4nc5ccccc5s4)cc3)C[C@@H]12 (stereo partly drawn) [Example 140, (R,S)-{3-[4-(Benzothiazol-2-yloxy)-benzyl]-3-aza-bicyclo[3.1.0]hex-6-yl}-urea]"
2,33 nM,"NC(=O)N1CCC2CN(Cc3ccc(Oc4nc5ccccc5s4)cc3)CC2C1 (stereo not shown) [Example 143, 2-[4-(Benzothiazol-2-yloxy)-benzyl]-octahydro-pyrrolo[3,4-c]pyridine-5-carboxylic acid amide]"
3,101 nM,"NC(=O)N1CC2CN(Cc3ccc(Oc4nc5ccc(F)cc5s4)cc3)CC2C1 (stereo not shown) [Example 144, 5-[4-(6-Fluoro-benzothiazol-2-yloxy)-benzyl]-hexahydro-pyrrolo[3,4-c]pyrrole-2-carboxylic acid amide]"
4,597 nM,"Cc1ccc2nc(Oc3ccc(CN4CC5CN(C(N)=O)CC5C4)cc3)sc2c1 (stereo not shown) [Example 145, 5-[4-(6-Methyl-benzothiazol-2-yloxy)-benzyl]-hexahydro-pyrrolo[3,4-c]pyrrole-2-carboxylic acid amide]"
5,78 nM,Cc1ccc2nc(Oc3ccc(CCN4CC5CN(C(N)=O)CC5C4)cc3)sc2c1 (stereo not shown) [Example 146]
6,5 nM,"NC(=O)N1CC2CN(CCc3ccc(Oc4nc5c(F)cccc5s4)cc3)CC2C1 (stereo not shown) [Example 147, 5-{2-[4-(4-Fluoro-benzothiazol-2-yloxy)-phenyl]-ethyl}-hexahydro-pyrrolo[3,4-c]pyrrole-2-carboxylic acid amide]"
7,229 nM,"CC(=O)N1CC2CN(CCc3ccc(Oc4nc5ccc(C)cc5s4)cc3)CC2C1 (stereo not shown) [Example 148, 1-(5-{2-[4-(6-Methyl-benzothiazol-2-yloxy)-phenyl]-ethyl}-hexahydro-pyrrolo[3,4-c]pyrrol-2-yl)-ethanone]"
8,79 nM,"CC(=O)N1CC2CN(Cc3ccc(Cc4nc5ccccc5s4)cc3)CC2C1 (stereo not shown) [Example 149, 1-[5-(4-Benzothiazol-2-ylmethyl-benzyl)-hexahydro-pyrrolo[3,4-c]pyrrol-2-yl]-ethanone]"
9,193 nM,"CS(=O)(=O)N1CC2CN(Cc3ccc(Cc4nc5ccccc5s4)cc3)CC2C1 (stereo not shown) [Example 150, 2-[4-(5-Methanesulfonyl-hexahydro-pyrrolo[3,4-c]pyrrol-2-ylmethyl)-benzyl]-benzothiazole]"
10,75 nM,"CC(=O)N[C@H]1C[C@H]2CC[C@@H](C1)N2CCOc1ccc(Cc2nc3ccccc3s2)cc1 [Example 152, N-{8-[2-(4-Benzothiazol-2-ylmethyl-phenoxy)-ethyl]-8-aza-bicyclo[3.2.1]oct-3-yl}-acetamide]"
11,167 nM,"COC(=O)c1ccc(CN2CC3CN(Cc4ccc(Oc5nc6ccccc6s5)cc4)CC3C2)cc1 (stereo not shown) [Example 153, 4-{5-[4-(Benzothiazol-2-yloxy)-benzyl]-hexahydro-pyrrolo[3,4-c]pyrrol-2-ylmethyl)-benzoic acid methyl ester]"
12,32 nM,"O=C(O)c1ccc(CN2CC3CN(Cc4ccc(Oc5nc6ccccc6s5)cc4)CC3C2)cc1 (stereo not shown) [Example 154, 4-{5-[4-(Benzothiazol-2-yloxy)-benzyl]-hexahydro-pyrrolo[3,4-c]pyrrol-2-ylmethyl)-benzoic acid]"
13,170 nM,"CCOC(=O)CN1CC2CN(Cc3ccc(Oc4nc5ccccc5s4)cc3)CC2C1 (stereo not shown) [Example 155, {5-[4-(Benzothiazol-2-yloxy)-benzyl]-hexahydro-pyrrolo[3,4-c]pyrrol-2-yl}-acetic acid ethyl ester]"
14,47 nM,"COC(=O)CCCN1CC2CN(Cc3ccc(Oc4nc5ccccc5s4)cc3)CC2C1 (stereo not shown) [Example 156, 4-{5-[4-(Benzothiazol-2-yloxy)-benzyl]-hexahydro-pyrrolo[3,4-c]pyrrol-2-yl}-butyric acid methyl ester]"
15,57 nM,"COC(=O)CN1CC2CN(Cc3ccc(Oc4nc5ccccc5s4)cc3)CC2C1 (stereo not shown) [Example 157, {5-[4-(Benzothiazol-2-yloxy)-benzyl]-hexahydro-pyrrolo[3,4-c]pyrrol-2-yl}-acetic acid methyl ester]"
16,48 nM,"O=C(O)CN1CC2CN(Cc3ccc(Oc4nc5ccccc5s4)cc3)CC2C1 (stereo not shown) [Example 158, {5-[4-(Benzothiazol-2-yloxy)-benzyl]-hexahydro-pyrrolo[3,4-c]pyrrol-2-yl}-acetic acid]"
17,110 nM,"NC(=O)N1CC2CN(Cc3ccc(Oc4nc5ccccc5s4)cc3F)CC2C1 (stereo not shown) [Example 159, 5-[4-(Benzothiazol-2-yloxy)-2-fluoro-benzyl]-hexahydro-pyrrolo[3,4-c]pyrrole-2-carboxylic acid amide]"
